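Step 1: Grow cells in 96-well plates. Step 2: Expose to compound for 48 hours at 5 concentrations. Step 3: Interpolate endpoints linearly; if unreached, use highest concentration. GI50 is the concentration that inhibits growth by half.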 Active and inactive are the calls of the source. Cut-off read from the data, not from the text of the source: active = GI50 up to about 1.1 µM and inactive = higher.
What was measured:
Experiment in all cases: growth of human tumour cells (NCI), 48 h
786-0 = test system: 786-0
A498 = test system: A498
A549 = test system: A549
ACHN = test system: ACHN
BT-549 = test system: BT-549
CAKI-1 = test system: CAKI-1
CCRF-CEM = test system: CCRF-CEM
COLO 205 = test system: COLO 205
DU-145 = test system: DU-145
EKVX = test system: EKVX
HCC 2998 = test system: HCC 2998
HCT-116 = test system: HCT-116
HCT-15 = test system: HCT-15
HL-60 = test system: HL-60
HOP-62 = test system: HOP-62
HOP-92 = test system: HOP-92
HT-29 = test system: HT-29
Hs-578T = test system: Hs-578T
IGROV-1 = test system: IGROV-1
K562 = test system: K562
KM12 = test system: KM12
LOX IMVI = test system: LOX IMVI
M14 = test system: M14
MCF7 = test system: MCF7
MDA-MB-231 = test system: MDA-MB-231
MDA-MB-435 = test system: MDA-MB-435
MDA-N = test system: MDA-N
MOLT-4 = test system: MOLT-4
Malme-3M = test system: Malme-3M
NCI-H226 = test system: NCI-H226
NCI-H23 = test system: NCI-H23
NCI-H460 = test system: NCI-H460
NCI-H522 = test system: NCI-H522
NCI/ADR-RES = test system: NCI/ADR-RES
OVCAR-3 = test system: OVCAR-3
OVCAR-4 = test system: OVCAR-4
OVCAR-5 = test system: OVCAR-5
OVCAR-8 = test system: OVCAR-8
PC-3 = test system: PC-3
RPMI-8226 = test system: RPMI-8226
RXF 393 = test system: RXF 393
SF-268 = test system: SF-268
SF-295 = test system: SF-295
SF-539 = test system: SF-539
SK-MEL-28 = test system: SK-MEL-28
SK-MEL-2 = test system: SK-MEL-2
SK-MEL-5 = test system: SK-MEL-5
SK-OV-3 = test system: SK-OV-3
SN12C = test system: SN12C
SNB-19 = test system: SNB-19
SNB-75 = test system: SNB-75
SR = test system: SR
SW-620 = test system: SW-620
T47D = test system: T47D
TK-10 = test system: TK-10
U-251 = test system: U-251
UACC-257 = test system: UACC-257
UACC-62 = test system: UACC-62
UO-31 = test system: UO-31

In the case of CC(=O)Oc1cc2c(cc1OCC(F)(F)F)[C@H]1CC[C@]3(C)[C@@H](OC(C)=O)CC[C@H]3[C@@H]1CC2=O, the GI50 (786-0) is reported as 26.4 µM (inactive), the GI50 (A498) is reported as 6.18 µM (inactive) and the GI50 (A549) is reported as 17.6 µM (inactive). For the same compound, the GI50 (ACHN) was 18.9 µM (inactive), the GI50 (BT-549) was 18.4 µM (inactive) and the GI50 (CAKI-1) was 17.4 µM (inactive). For the same compound, the GI50 (CCRF-CEM) was 15.3 µM (inactive), the GI50 (COLO 205) was 30.8 µM (inactive) and the GI50 (DU-145) was 20.7 µM (inactive). For the same compound, the GI50 (EKVX) was 22.8 µM (inactive), the GI50 (HCC 2998) was 16.8 µM (inactive) and the GI50 (HCT-116) was 19.3 µM (inactive). The GI50 (HCT-15) was 16.6 µM, the GI50 (HL-60) was 13.9 µM (inactive) and the GI50 (HOP-62) was 25.1 µM (inactive). For the same compound, the GI50 (HOP-92) was 13.2 µM (inactive), the GI50 (HT-29) was 23.9 µM (inactive) and the GI50 (Hs-578T) was 13.7 µM (inactive). The GI50 (IGROV-1) was 18.7 µM (inactive), the GI50 (K562) was 16.6 µM (inactive) and the GI50 (KM12) was 27.7 µM (inactive). The GI50 (LOX IMVI) was 15.4 µM (inactive), the GI50 (M14) was 26.4 µM (inactive) and the GI50 (MCF7) was 18.9 µM (inactive). For the same compound, the GI50 (MDA-MB-231) was 11.1 µM (inactive), the GI50 (MDA-MB-435) was 21.6 µM (inactive) and the GI50 (MDA-N) was 24.1 µM (inactive). For the same compound, the GI50 (MOLT-4) was 15.6 µM (inactive), the GI50 (Malme-3M) was 16.8 µM (inactive) and the GI50 (NCI-H226) was 46.6 µM (inactive). For the same compound, the GI50 (NCI-H23) was 21.2 µM (inactive), the GI50 (NCI-H460) was 26.9 µM (inactive) and the GI50 (NCI-H522) was 20 µM (inactive). The GI50 (NCI/ADR-RES) was 15.3 µM (inactive), the GI50 (OVCAR-3) was 19.5 µM (inactive) and the GI50 (OVCAR-4) was 17.5 µM (inactive). For the same compound, the GI50 (OVCAR-5) was 19.8 µM (inactive), the GI50 (OVCAR-8) was 20.9 µM (inactive) and the GI50 (PC-3) was 14.5 µM (inactive). The GI50 (RPMI-8226) was 22.3 µM (inactive), the GI50 (RXF 393) was 13.9 µM (inactive) and the GI50 (SF-268) was 21.1 µM (inactive). The GI50 (SF-295) was 25.1 µM (inactive), the GI50 (SF-539) was 19.3 µM (inactive) and the GI50 (SK-MEL-28) was 22.2 µM (inactive). The GI50 (SK-MEL-2) was 16.9 µM (inactive), the GI50 (SK-MEL-5) was 17 µM (inactive) and the GI50 (SK-OV-3) was 22 µM (inactive). The GI50 (SN12C) was 21 µM (inactive), the GI50 (SNB-19) was 18.8 µM (inactive) and the GI50 (SNB-75) was 16 µM (inactive). For the same compound, the GI50 (SR) was 20.7 µM (inactive), the GI50 (SW-620) was 21.7 µM (inactive) and the GI50 (T47D) was 23.3 µM (inactive). The GI50 (TK-10) was 17.5 µM (inactive), the GI50 (U-251) was 16.4 µM (inactive) and the GI50 (UACC-257) was 18.9 µM (inactive). The GI50 (UACC-62) was 12.2 µM (inactive) and the GI50 (UO-31) was 16 µM (inactive).
For CCCCCCCCCCCCC1N=C(N)N2CCCC2=C1C(=O)OC (stereo not drawn), the GI50 (786-0) was 1.74 µM (inactive), the GI50 (A498) was 22.6 µM (inactive) and the GI50 (A549) was 8.67 µM (inactive). The GI50 (ACHN) was 5.38 µM (inactive), the GI50 (BT-549) was 10.9 µM (inactive) and the GI50 (CAKI-1) was 3.24 µM (inactive). The GI50 (CCRF-CEM) was 1.61 µM (inactive), the GI50 (COLO 205) was 1.95 µM (inactive) and the GI50 (DU-145) was 8.07 µM (inactive). For the same compound, the GI50 (EKVX) was 14.7 µM (inactive), the GI50 (HCC 2998) was 1.84 µM (inactive) and the GI50 (HCT-116) was 1.73 µM (inactive). The GI50 (HCT-15) was 1.79 µM, the GI50 (HL-60) was 1.85 µM (inactive) and the GI50 (HOP-62) was 4.24 µM (inactive). For the same compound, the GI50 (HOP-92) was 4.35 µM (inactive), the GI50 (HT-29) was 1.67 µM (inactive) and the GI50 (Hs-578T) was 2.25 µM (inactive). The GI50 (IGROV-1) was 3.22 µM (inactive), the GI50 (K562) was 1.38 µM (inactive) and the GI50 (KM12) was 1.98 µM (inactive). For the same compound, the GI50 (LOX IMVI) was 1.51 µM (inactive), the GI50 (M14) was 1.73 µM (inactive) and the GI50 (MCF7) was 1.77 µM (inactive). The GI50 (MDA-MB-231) was 1.9 µM (inactive), the GI50 (MDA-MB-435) was 1.86 µM (inactive) and the GI50 (MDA-N) was 1.95 µM (inactive). For the same compound, the GI50 (MOLT-4) was 1.47 µM (inactive), the GI50 (Malme-3M) was 1.8 µM (inactive) and the GI50 (NCI-H226) was 19.1 µM (inactive). For the same compound, the GI50 (NCI-H23) was 2.26 µM (inactive), the GI50 (NCI-H460) was 1.79 µM (inactive) and the GI50 (NCI-H522) was 1.76 µM (inactive). The GI50 (NCI/ADR-RES) was 5.92 µM (inactive), the GI50 (OVCAR-3) was 2.14 µM (inactive) and the GI50 (OVCAR-4) was 2.31 µM (inactive). For the same compound, the GI50 (OVCAR-5) was 6.25 µM (inactive), the GI50 (OVCAR-8) was 2.49 µM (inactive) and the GI50 (PC-3) was 1.62 µM (inactive). The GI50 (RPMI-8226) was 1.82 µM (inactive), the GI50 (RXF 393) was 47.8 µM (inactive) and the GI50 (SF-268) was 3.44 µM (inactive). The GI50 (SF-295) was 1.78 µM (inactive), the GI50 (SF-539) was 5.41 µM (inactive) and the GI50 (SK-MEL-28) was 1.69 µM (inactive). The GI50 (SK-MEL-2) was 2.32 µM (inactive), the GI50 (SK-MEL-5) was 2.42 µM (inactive) and the GI50 (SK-OV-3) was 8.49 µM (inactive). For the same compound, the GI50 (SN12C) was 2.75 µM (inactive), the GI50 (SNB-19) was 1.8 µM (inactive) and the GI50 (SNB-75) was 1.54 µM (inactive). For the same compound, the GI50 (SR) was 2.13 µM (inactive), the GI50 (SW-620) was 1.7 µM (inactive) and the GI50 (T47D) was 1.69 µM (inactive). The GI50 (TK-10) was 7.62 µM (inactive), the GI50 (U-251) was 1.65 µM (inactive) and the GI50 (UACC-257) was 1.86 µM (inactive). For the same compound, the GI50 (UACC-62) was 1.74 µM (inactive) and the GI50 (UO-31) was 8.26 µM (inactive).
